Experimental data published in US10973840B2, “Methods of sensitizing tumor cells to weak base chemotherapeutic drugs” (SOCPRA SCIENCES SANTÉ ET HUMAINES S.E.C., priority 2017, dated 2021).
Read-outs that look alike come from different tables or passages of the source.

Tests used:
Format in all cases: cell-based, human
[1] = tested on: MDA-MB-231 cells; experiment: Intracellular pH measurement (HPTS/SNARF-1) by confocal microscopy, MDA-MB-231; details: MDA-MB-231, 1% O2, 4 h; for effect on hypoxia-induced intravesicular acidification: Baf 100 nM, Cq 10 μM
Protocol: (§1) The pH sensing ratiometric dyes SNARF-1 and HPTS (Life Technologies) were used simultaneously for pH measurement of both cytoplasmic (C-SNARF-1) and endosomal/lysosomal (HPTS) compartments as previously described^30. Briefly, cells were cultured in 35 mm petri dishes (BD Biosciences) and used at 50% confluence. For endocytic labeling, cells were incubated overnight with HPTS (1 mM), washed, followed by a 20-min incubation with SNARF-1 (5 μM) to label the cytoplasmic compartment. Living cells were analyzed using an Olympus Fluoview™ FV1000 confocal microscope. Fluorescence emissions of both pH-sensing probes were recorded and subsequently analyzed as described^30.

[2] = tested on: HT-1080 cells; experiment: Intracellular localization of Dox by confocal live-cell imaging, HT-1080; details: for effect on hypoxia-induced Dox sequestration within endosomes: HT-1080, 1% O2, Cq 10 μM, Baf 100 nM
Protocol: (§2) Cells were cultured in 25 mm-diameter glass coverslips (Thermo Fisher Scientific) and incubated under various conditions (as indicated in the FIG. legends). Cells were then incubated for 2 h in a medium containing Dox (2 μM). After the incubation period, cells were washed to remove excess Dox and left in drug-free media for 10 min. […] Coverslips were mounted on glass slides and placed on a 37° C. warmed stage of an Olympus Fluoview™ FV1000 (Olympus, Tokyo, Japan) confocal laser scanning microscope. Dox was excited with a green helium neon laser (543 nm) and emitted fluorescence intensity was measured. Images were acquired on the same day, typically from 10-20 cells of similar size from each experimental condition, using identical instrument settings.

[3] = tested on: HT-1080 cells; experiment: Intracellular pH measurement (HPTS/SNARF-1) by confocal microscopy, HT-1080; details: HT-1080, 1% O2, 4 h; for effect on hypoxia-induced intravesicular acidification: Baf 100 nM, Cq 10 μM
Protocol: as §1

[4] = tested on: MDA-MB-231 cells; experiment: Intracellular localization of Dox by confocal live-cell imaging, MDA-MB-231; details: MDA-MB-231, 1% O2; Cq 10 μM, Baf 100 nM
Protocol: as §2

[5] = tested on: HT-1080 fibrosarcoma cells; experiment: MTT cell viability assay, HT-1080; details: for Fold change: HT-1080, IC50 at 1% O2 to IC50 at 21% O2; for increase in resistance toward the drug by hypoxia: HT-1080 cells (so in the source), 1% O2 vs 21% O2; for IC50: Homo sapiens, HT-1080, 72 h
Protocol: (§3) Cells (5×10^3) were cultured in 96-well plates and pre-incubated under 21% O2 or 1% O2 for 4 h following the addition of drugs for 72 h. Cell viability was measured using the 3-(4,5-dimethylthiazol-2-yl)-2,5-diphenyltetrazolium bromide (MTT) dye (Life Technologies) according to manufacturer's instructions. Because hypoxic conditions may affect the reduction of MTT to formazan, incubation of all cell cultures with MTT were performed under normoxic conditions. Each experiment was performed in triplicate and at least three independent experiments were performed. Log-scale dose-response data were plotted on a graph and a three-parameter non-linear regression was applied to determine IC50 values. For calculation of the IC50s, both normoxic and hypoxic drug-treated samples were normalized with their untreated counterpart.
(§4) To assess the role of pH in hypoxia-induced resistance to anthracyclines, the human breast cancer MDA-MB-231 and fibrosarcoma HT-1080 cell lines were incubated in the presence or absence of the commonly used anthracycline drugs, doxorubicin (Dox), daunorubicin (Dau) and the anthracycline analog drug, mitoxantrone (Mtx), under hypoxic (1% O2) or normoxic (21% O2) conditions for 72 hours. Cell viability was then assessed using the MTT assay. The impact of extracellular pH on Dox uptake by HT-1080 was also assessed.

[6] = tested on: MDA-MB-231 breast cancer cells; experiment: MTT cell viability assay, MDA-MB-231; details: for IC50: Homo sapiens, MDA-MB-231, 72 h; for Fold change: MDA-MB-231, IC50 at 1% O2 to IC50 at 21% O2
Protocol: as §3, §4

[7] = tested on: NHE6; experiment: NHE6 localization (cell-surface biotinylation, EEA1 immunofluorescence) in HT-1080
Protocol: Biotinylation steps were performed at […] Cells were grown on circular 15-mm diameter glass coverslips (Thermo Fisher Scientific) and incubated at 21% or 1% O2. Cells were then washed with PBS containing 1 mM CaCl2 and 0.5 mM MgCl2 (PBSCM) and incubated for 5 min with 0.3 mg/ml of EZ-Link Sulfo-NHS-SS-Biotin (Pierce) in PBSCM. Unreacted biotin was quenched using 100 mM glycine. Cells were fixed for 10 min at room temperature using 1% PFA in PBS. Prior to staining, cells were blocked with 5% of BSA for 1 h at room temperature. Biotinylated cells were stained with 5 μg/ml Streptavidin Texas Red (Invitrogen) for 1 h at 4° C. Coverslips were washed and mounted on a microscope slide using Vectashield mounting media (Vector labs).
Cultured cells were fixed with 1% PFA for 10 min at room temperature, permeabilized with saponin (0.05% in PBS) for 20 min, and blocked with 2% BSA in PBS for 30 min. Cells were then incubated with the appropriate primary and secondary antibodies as follows: anti-EEA1 (1/500), anti-Rab7 (1/500) and fluorophore-conjugated secondary antibodies (1/1000). Images were recorded using an Olympus Fluoview™ FV1000 confocal microscope using a 63× oil immersion objective.

[8] = tested on: NHE6-RACK1 interaction; experiment: Co-immunoprecipitation of NHE6 with RACK1 in HT-1080; details: HT-1080, PDBu 100 nM
Protocol: Cells were lysed on ice in NP-40-containing buffer (50 mM Tris-HCl pH 8.0, 150 mM NaCl, 1% NP-40, 5 mM EDTA, phosphatase and protease inhibitors). Cell lysates were centrifuged at 13,000 rpm at 4° C. and protein concentration determined using the BCA protein assay (Thermo Fisher Scientific). After a pre-clearing step with protein A/G-agarose beads (GE Healthcare), protein complexes were immunoprecipitated overnight at 4° C. Samples were incubated in SDS-loading buffer for 30 minutes at room temperature to avoid transmembrane protein aggregates upon heating in a boiling water bath. Proteins were separated by SDS-PAGE electrophoresis, transferred to a PVDF membrane and immunoblotting was performed as described, using anti-NHE6 (1:1000), anti-NHE9 (1:1000) anti-RACK1 (1:2000), anti-tubulin (1:5000), anti-actin (1:5000) anti-HA (1:1000), anti-PKC (1:200), anti-phospho PKC substrate (1:1000), anti-LAMP2 (1:200), anti-P-glycoprotein (1:200) and HRP-conjugated secondary antibodies (1/10 000)^66.

CO/C1=C\C(C)=C\[C@@H](C)[C@@H](O)[C@@H](C)C/C(C)=C/C=C/[C@H](OC)[C@@H]([C@@H](C)[C@@H](O)[C@H](C)[C@@]2(O)C[C@@H](O)[C@H](C)[C@@H](C(C)C)O2)OC1=O [Baf, bafilomycin A1]
effect on hypoxia-induced intravesicular acidification [1]: prevented | effect on hypoxia-induced Dox sequestration within endosomes [2]: abolished hypoxia-induced Dox sequestration within endosomes | effect on hypoxia-induced intravesicular acidification [3]: prevented | effect on hypoxia-induced Dox sequestration within endosomes [4]: abolished hypoxia-induced Dox sequestration within endosomes

CCN(CC)CCCC(C)Nc1ccnc2cc(Cl)ccc12 (centres unmarked) [Cq, chloroquine]
effect on hypoxia-induced intravesicular acidification [1]: prevented | effect on hypoxia-induced Dox sequestration within endosomes [2]: abolished hypoxia-induced Dox sequestration within endosomes | effect on hypoxia-induced intravesicular acidification [3]: prevented | effect on hypoxia-induced Dox sequestration within endosomes [4]: abolished hypoxia-induced Dox sequestration within endosomes

COc1cccc2c1C(=O)c1c(O)c3c(c(O)c1C2=O)C[C@@](O)(C(C)=O)C[C@@H]3O[C@H]1C[C@H](N)[C@H](O)[C@H](C)O1 [Dau, daunorubicin]
Fold change [5]: 8.1 fold | increase in resistance toward the drug by hypoxia [5]: 4.7 fold | IC50 ([5]; read-out: IC50 of anthracyclines, HT-1080, 1% O2, 72 h): 814 nM | IC50 ([5]; read-out: IC50 of anthracyclines, HT-1080, 21% O2, 72 h): 102 nM | IC50 ([6]; read-out: IC50 of anthracyclines, MDA-MB-231, 1% O2, 72 h): 921 nM | IC50 ([6]; read-out: IC50 of anthracyclines, MDA-MB-231, 21% O2, 72 h): 199 nM | Fold change [6]: 4.7 fold

CCN(c1nc(N)c(C(=O)NC(=N)N)nc1Cl)C(C)C [EIPA]
effect on hypoxia-induced increase in cytosolic pH ([1]; EIPA 25 μM): prevented | effect on hypoxia-induced increase in cytosolic pH ([3]; EIPA 25 μM): prevented

CN(C)CCCn1cc(C2=C(c3c[nH]c4ccccc34)C(=O)NC2=O)c2ccccc21 [GF109203X]
hypoxia-induced NHE6 relocalization ([7]; HT-1080, 1% O2, 4 h, GF-109203x 200 nM): blocked | Dox within the nucleus ([2]; HT-1080, 1% O2, PKC inhibition (GF-109203x 200 nM)): promoted the accumulation of Dox in the nuclear compartment | endosomal/lysosomal pH under hypoxic conditions ([3]; PKC inhibition (GF-109203x 200 nM)): partial recovery of normal pH values

O=C1c2c(O)ccc(O)c2C(=O)c2c(NCCNCCO)ccc(NCCNCCO)c21 [Mtx, mitoxantrone]
Fold change [5]: 4.9 fold | increase in resistance toward the drug by hypoxia [5]: 5.0 fold | IC50 ([5]; HT-1080, 1% O2, 72 h, read-out: IC50 of anthracyclines): 451 nM | IC50 ([5]; HT-1080, 21% O2, 72 h, read-out: IC50 of anthracyclines): 93.5 nM | IC50 ([6]; MDA-MB-231, 1% O2, 72 h, read-out: IC50 of anthracyclines): 752 nM | IC50 ([6]; MDA-MB-231, 21% O2, 72 h, read-out: IC50 of anthracyclines): 152 nM | Fold change [6]: 5.0 fold

CCCC(=O)O[C@@H]1[C@@H](C)[C@@]2(O)[C@@H](C=C(CO)C[C@]3(O)C(=O)C(C)=C[C@@H]23)[C@@H]2C(C)(C)[C@]12OC(=O)CCC [PDBu, phorbol-12,13-dibutyrate]
association of NHE6 with RACK1 [8]: promoted | relocalization of NHE6 from endosomes to the plasma membrane ([7]; HT-1080, normoxia, PDBu 100 nM): promoted
